According to PubChem BioAssay (NCI):
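Each compound was tested at five concentrations against cells in 96-well plates for 48 hours. Here, GI50 denotes the concentration required for 50% inhibition of growth. TGI denotes the concentration required for complete inhibition of growth.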

How the values were obtained:
Experiment in all cases: growth of human tumour cells (NCI), 48 h
786-0 renal = test system: 786-0 renal
A498 renal = test system: A498 renal
A549 NSCLC = test system: A549 NSCLC
ACHN renal = test system: ACHN renal
BT-549 breast = test system: BT-549 breast
CAKI-1 renal = test system: CAKI-1 renal
CCRF-CEM leukemia = test system: CCRF-CEM leukemia
COLO 205 colon = test system: COLO 205 colon
DU-145 prostate = test system: DU-145 prostate
EKVX NSCLC = test system: EKVX NSCLC
HCC-2998 colon = test system: HCC-2998 colon
HCT-116 colon = test system: HCT-116 colon
HCT-15 colon = test system: HCT-15 colon
HL-60(TB) leukemia = test system: HL-60(TB) leukemia
HOP-62 NSCLC = test system: HOP-62 NSCLC
HOP-92 NSCLC = test system: HOP-92 NSCLC
HS 578T breast = test system: HS 578T breast
HT29 colon = test system: HT29 colon
IGROV1 ovarian = test system: IGROV1 ovarian
K-562 leukemia = test system: K-562 leukemia
KM12 colon = test system: KM12 colon
LOX IMVI melanoma = test system: LOX IMVI melanoma
M14 melanoma = test system: M14 melanoma
MALME-3M melanoma = test system: MALME-3M melanoma
MCF7 breast = test system: MCF7 breast
MDA-MB-231 breast = test system: MDA-MB-231 breast
MDA-MB-435 = test system: MDA-MB-435
MOLT-4 leukemia = test system: MOLT-4 leukemia
NCI-H226 lung = test system: NCI-H226 lung
NCI-H23 lung = test system: NCI-H23 lung
NCI-H460 lung = test system: NCI-H460 lung
NCI-H522 lung = test system: NCI-H522 lung
NCI/ADR-RES ovarian = test system: NCI/ADR-RES ovarian
OVCAR-3 ovarian = test system: OVCAR-3 ovarian
OVCAR-4 ovarian = test system: OVCAR-4 ovarian
OVCAR-5 ovarian = test system: OVCAR-5 ovarian
OVCAR-8 ovarian = test system: OVCAR-8 ovarian
PC-3 prostate = test system: PC-3 prostate
RPMI-8226 leukemia = test system: RPMI-8226 leukemia
RXF 393 renal = test system: RXF 393 renal
SF-268 CNS = test system: SF-268 CNS
SF-295 CNS = test system: SF-295 CNS
SF-539 CNS = test system: SF-539 CNS
SK-MEL-2 melanoma = test system: SK-MEL-2 melanoma
SK-MEL-28 melanoma = test system: SK-MEL-28 melanoma
SK-MEL-5 melanoma = test system: SK-MEL-5 melanoma
SK-OV-3 ovarian = test system: SK-OV-3 ovarian
SN12C renal = test system: SN12C renal
SNB-19 CNS = test system: SNB-19 CNS
SNB-75 CNS = test system: SNB-75 CNS
SR leukemia = test system: SR leukemia
SW-620 colon = test system: SW-620 colon
T-47D breast = test system: T-47D breast
TK-10 renal = test system: TK-10 renal
U251 CNS = test system: U251 CNS
UACC-257 melanoma = test system: UACC-257 melanoma
UACC-62 melanoma = test system: UACC-62 melanoma
UO-31 renal = test system: UO-31 renal

N#C/C(=C\c1cn(Cc2ccccc2)c2ccccc12)C(=O)Nc1ncc(Cc2ccccc2Cl)s1
GI50 (786-0 renal): 1510 nM | TGI (786-0 renal): 3110 nM | GI50 (A498 renal): 1080 nM | TGI (A498 renal): 2870 nM | GI50 (A549 NSCLC): 1790 nM | TGI (A549 NSCLC): 6020 nM | GI50 (ACHN renal): 823 nM | TGI (ACHN renal): 2140 nM | GI50 (BT-549 breast): 2940 nM | TGI (BT-549 breast): 11600 nM | GI50 (CAKI-1 renal): 1430 nM | TGI (CAKI-1 renal): 3750 nM | GI50 (CCRF-CEM leukemia): 2510 nM | TGI (CCRF-CEM leukemia): > 100000 nM | GI50 (COLO 205 colon): 1140 nM | TGI (COLO 205 colon): 2810 nM | GI50 (DU-145 prostate): 2750 nM | TGI (DU-145 prostate): > 100000 nM | GI50 (EKVX NSCLC): 2820 nM | TGI (EKVX NSCLC): 12700 nM | GI50 (HCC-2998 colon): 3230 nM | TGI (HCC-2998 colon): > 100000 nM | GI50 (HCT-116 colon): 1270 nM | TGI (HCT-116 colon): 3890 nM | GI50 (HCT-15 colon): 2830 nM | TGI (HCT-15 colon): > 100000 nM | GI50 (HL-60(TB) leukemia): > 100000 nM | TGI (HL-60(TB) leukemia): > 100000 nM | GI50 (HOP-62 NSCLC): 2520 nM | TGI (HOP-62 NSCLC): 10400 nM | GI50 (HOP-92 NSCLC): 1880 nM | TGI (HOP-92 NSCLC): 6000 nM | GI50 (HS 578T breast): 1930 nM | TGI (HS 578T breast): 7080 nM | GI50 (HT29 colon): 2660 nM | TGI (HT29 colon): > 100000 nM | GI50 (IGROV1 ovarian): 1930 nM | TGI (IGROV1 ovarian): 5570 nM | GI50 (K-562 leukemia): 3030 nM | TGI (K-562 leukemia): > 100000 nM | GI50 (KM12 colon): 1890 nM | TGI (KM12 colon): 6620 nM | GI50 (LOX IMVI melanoma): 4610 nM | TGI (LOX IMVI melanoma): 48800 nM | GI50 (M14 melanoma): 2520 nM | TGI (M14 melanoma): 10400 nM | GI50 (MALME-3M melanoma): 1780 nM | TGI (MALME-3M melanoma): 4140 nM | GI50 (MCF7 breast): 3010 nM | TGI (MCF7 breast): > 100000 nM | GI50 (MDA-MB-231 breast): 1930 nM | TGI (MDA-MB-231 breast): 4790 nM | GI50 (MDA-MB-435): 1790 nM | TGI (MDA-MB-435): 4720 nM | GI50 (MOLT-4 leukemia): 2490 nM | TGI (MOLT-4 leukemia): > 100000 nM | GI50 (NCI-H226 lung): 1700 nM | TGI (NCI-H226 lung): 5670 nM | GI50 (NCI-H23 lung): 1710 nM | TGI (NCI-H23 lung): 4080 nM | GI50 (NCI-H460 lung): 530 nM | TGI (NCI-H460 lung): 1990 nM | GI50 (NCI-H522 lung): 1800 nM | TGI (NCI-H522 lung): 6360 nM | GI50 (NCI/ADR-RES ovarian): 2680 nM | TGI (NCI/ADR-RES ovarian): 13300 nM | GI50 (OVCAR-3 ovarian): 1560 nM | TGI (OVCAR-3 ovarian): 3620 nM | GI50 (OVCAR-4 ovarian): 393 nM | TGI (OVCAR-4 ovarian): 1610 nM | GI50 (OVCAR-5 ovarian): 1700 nM | TGI (OVCAR-5 ovarian): 4590 nM | GI50 (OVCAR-8 ovarian): 1350 nM | TGI (OVCAR-8 ovarian): 3130 nM | GI50 (PC-3 prostate): 2010 nM | TGI (PC-3 prostate): 7480 nM | GI50 (RPMI-8226 leukemia): 3230 nM | TGI (RPMI-8226 leukemia): > 100000 nM | GI50 (RXF 393 renal): 2270 nM | TGI (RXF 393 renal): 6140 nM | GI50 (SF-268 CNS): 2790 nM | TGI (SF-268 CNS): 23400 nM | GI50 (SF-295 CNS): 2360 nM | TGI (SF-295 CNS): 6870 nM | GI50 (SF-539 CNS): 1680 nM | TGI (SF-539 CNS): 3420 nM | GI50 (SK-MEL-2 melanoma): 2050 nM | TGI (SK-MEL-2 melanoma): 4850 nM | GI50 (SK-MEL-28 melanoma): 2360 nM | TGI (SK-MEL-28 melanoma): 6740 nM | GI50 (SK-MEL-5 melanoma): 2620 nM | TGI (SK-MEL-5 melanoma): 7080 nM | GI50 (SK-OV-3 ovarian): 1800 nM | TGI (SK-OV-3 ovarian): 4660 nM | GI50 (SN12C renal): 1570 nM | TGI (SN12C renal): 3880 nM | GI50 (SNB-19 CNS): 3070 nM | TGI (SNB-19 CNS): 17800 nM | GI50 (SNB-75 CNS): 1500 nM | TGI (SNB-75 CNS): 4540 nM | GI50 (SR leukemia): 1110 nM | TGI (SR leukemia): 3580 nM | GI50 (SW-620 colon): 1520 nM | TGI (SW-620 colon): 4200 nM | GI50 (T-47D breast): 1690 nM | TGI (T-47D breast): 4150 nM | GI50 (TK-10 renal): 1930 nM | TGI (TK-10 renal): 4200 nM | GI50 (U251 CNS): 1360 nM | TGI (U251 CNS): 2920 nM | GI50 (UACC-257 melanoma): 3300 nM | TGI (UACC-257 melanoma): > 100000 nM | GI50 (UACC-62 melanoma): 1520 nM | TGI (UACC-62 melanoma): 3160 nM | GI50 (UO-31 renal): 1460 nM | TGI (UO-31 renal): 3180 nM
